Test results taken from article PMC12603070, “A high-throughput screening approach to discover potential colorectal cancer chemotherapeutics: repurposing drugs to identify novel disruptors of 14-3-3 proteins” (Cell Death & Disease, 2025).
Read-outs that look alike come from different tables or passages of the source.

Legend:
[1] = target: T1, 14-3-3ζ:BAD-112-136F interactions (Homo sapiens, UniProt P63104); experiment: BRET sensor screen for disruption of 14-3-3ζ-Rluc8:BAD-112-136F-mCitrine in living NIH-3T3 cells; assay type: cell-based, murine; design: inhibition: dose or concentration left out as unconfirmed; settings: for inhibition at 20 µM / inhibition: NIH3T3, 3 h; for inhibition: NIH-3T3 cells
T1 construct: expressed in transfected cells; host or cells: NIH-3T3 fibroblasts, bi-directional pBI-CMV1 plasmid
T1 sequence (P63104 1-245): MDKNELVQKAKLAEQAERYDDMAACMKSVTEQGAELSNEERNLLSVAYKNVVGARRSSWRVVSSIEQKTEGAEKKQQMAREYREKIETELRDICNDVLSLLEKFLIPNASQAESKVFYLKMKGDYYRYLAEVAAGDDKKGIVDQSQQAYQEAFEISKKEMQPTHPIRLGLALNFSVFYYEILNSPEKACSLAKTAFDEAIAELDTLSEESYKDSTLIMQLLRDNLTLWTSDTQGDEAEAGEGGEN
Procedure, shortened: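 NIH-3T3 cells were transfected with the BRET sensor two days beforehand, then replated on poly-L-ornithine-coated plates and grown 24 h at 37 °C. Medium was then replaced with Krebs buffer (pH 7.4). Z′-score was calculated to judge HTS robustness.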

NIH-3T3 cells = experiment: Hoechst/propidium iodide cell death assay in NIH-3T3; assay type: cell-based; settings: for cytotoxicity at 20 µM: Mus musculus, NIH3T3, 24 h, 24 h, read-out: Percentage of cell death % 24h NIH3t3
Source text: A high-content imaging system (PerkinElmer; Operetta CLS), was used to quantify cell death and apoptosis by calculating the number of propidium iodide-positive cells relative to Hoechst-positive cells, and the number of Annexin V-positive cells relative to Hoechst-positive cells, respectively.

[2] = tested on: BAD translocation to mitochondria in NIH-3T3 cells; experiment: Confocal imaging of BAD-mCitrine translocation to TMRE-labeled mitochondria in NIH-3T3; assay type: cell-based; settings: NIH-3T3 expressing BAD-mCitrine; R18 10 µM, FTY720 2 µM; 24 h
Method: To visualize BAD translocation, 35 mm glass-bottom dishes (ibidi, Gräfelfing, Germany; #81158) were coated with 0.1 mg/mL Poly-D-lysine hydrobromide for 2 h at 37 °C. After coating, dishes were washed twice with sterilized water. Subsequently, cells transfected with BAD-mCitrine were seeded at a density of 20,000 cells per dish and incubated for 24 h to allow for cell attachment. For live-cell imaging, cells were then incubated for 1 h with the mitochondrial membrane potential dye tetramethylrhodamine ethyl ester (TMRE, Invitrogen; #T668) at a final concentration of 100 nM, according to the manufacturer’s instructions. Images were acquired on a Zeiss (Oberkochen, Germany) LSM-900 Airyscan inverted confocal microscope equipped with an environmental incubation system, laser lines including 488 and 561 nm, and an oil immersion 60×/1.40 Plan achromat objective. The signal from the YFP fluorophore (ex. 488 nm, det. 525–542 nm) and the TMRE (ex. 561 nm, det. 600–700 nm) were collected in super-resolution mode. The cell viability dye, DRAQ (BioLegend, California, USA; #424101), was added to the medium at a 1:1000 dilution from the commercial stock and incubated at room temperature for 30 min prior to live-cell imaging. To quantify the colocalization of BAD-mCitrine and the mitochondria labeled with the TMRE, the JACoP plugin in ImageJ was employed. […]

[3] = tested on: HT-29 and Caco-2 CRC cells; experiment: Cell death in CRC cells, statements covering both HT-29 and Caco-2 (screen at 20 µM, dose-response); assay type: cell-based, human; settings: dose-response 2.5-20 µM in HT-29 and Caco-2
Method: (§1) Cells were plated at a density of 20,000 cells/well into 96-well plates (PerkinElmer; #6055302) and incubated overnight at 37 °C before the addition of the drugs. One hour prior to imaging, Hoechst 33342 (Invitrogen, #H3570) and propidium iodide (Invitrogen; #P3566) were added to the wells to achieve final concentrations of 50 ng/ml and 0.5 μg/ml, respectively. To measure apoptosis, AlexaFluor 488-conjugated Annexin V (ThermoFisher, Massachusetts, USA; #A13201) was also added at a dilution of 1:400 from the commercial stock. A high-content imaging system (PerkinElmer; Operetta CLS), was used to quantify cell death and apoptosis by calculating the number of propidium iodide-positive cells relative to Hoechst-positive cells, and the number of Annexin V-positive cells relative to Hoechst-positive cells, respectively. To assess caspase-dependent apoptosis, cells were pre-treated for 30 min with the caspase inhibitor Z-VAD-FMK (BD Biosciences, New Jersey, USA; #550377; 20 μM) or the negative control Z-FA-FMK (BD Biosciences; #550411; 20 μM) prior to the incubation of drugs.

HT-29 and Caco-2 cells = experiment: Annexin V/propidium iodide apoptosis and caspase dependence (Z-VAD-FMK) in HT-29 and Caco-2; assay type: cell-based, human; settings: for Kinetics of induction of cell death and apoptosis: time courses of PI and Annexin V incorporation, HT-29 and Caco-2, 5 and 10 µM
Method: as §1

[4] = hits from the primary screen, read-out: BRET reduction on NIH-3T3
[5] = NIH-3T3 expressing BRET sensor, 20 µM, 3 h, read-out: BRET reduction on NIH-3T3

Structure (SMILES): CCCCCCCCc1ccc(CCC(N)(CO)CO)cc1 [Fingolimod (FTY720), Fingolimod]
- inhibition at 20 µM ([1]; read-out: BRET reduction on NIH-3T3, NIH-3T3 cells, hits from the primary screen): 34.9%
- inhibition at 20 µM ([1]; read-out: BRET reduction on NIH-3T3, NIH-3T3 expressing BRET sensor, 20 µM, 3 h): 34.9%
- Effect on BRET, dose-response ([1]; NIH-3T3 expressing BRET sensor, 3 h post-treatment): significantly reduced BRET in a dose-dependent manner
- cytotoxicity at 20 µM (NIH-3T3 cells): 89.8%
- Percentage of cell death % 48h, NIH3T3 (NIH-3T3 cells): 86.4299%
- BAD translocation to TMRE-labeled mitochondria [2]: promoted BAD translocation

Structure (SMILES): O=C(NC1CCN(CCCCC2(C(=O)NCC(F)(F)F)c3ccccc3-c3ccccc32)CC1)c1ccccc1-c1ccc(C(F)(F)F)cc1 [Lomitapide]
- inhibition [1, 4]: 40.8%
- inhibition at 20 µM [1, 5]: 40.8%
- cytotoxicity at 20 µM (NIH-3T3 cells): 90.2%
- Percentage of cell death % 48h, NIH3T3 (NIH-3T3 cells): 77.6841%
- Lowest concentration that significantly induced cell death [3]: 5 µM
- Effect of Z-VAD-FMK on annexin V incorporation (HT-29 and Caco-2 cells; lomitapide-treated Caco-2 cells, 10 μM, 48 h): preventing annexin V incorporation

Structure (SMILES): OC1(c2ccc(Cl)c(C(F)(F)F)c2)CCN(CCCC(c2ccc(F)cc2)c2ccc(F)cc2)CC1 [Penfluridol]
- inhibition [1, 4]: 53.8%
- inhibition at 20 µM [1, 5]: 53.8%
- cytotoxicity at 20 µM (NIH-3T3 cells): 85.7%
- Percentage of cell death % 48h, NIH3T3 (NIH-3T3 cells): 79.942%
- Lowest concentration that significantly induced cell death [3]: 5 µM
- Kinetics of induction of cell death and apoptosis (HT-29 and Caco-2 cells): more rapidly than lomitapide

Structure (SMILES): CC(C)(C)c1ccc(C(O)CCCN2CCC(C(O)(c3ccccc3)c3ccccc3)CC2)cc1 (stereo not drawn) [Terfenadine]
- inhibition [1, 4]: 45.6%
- inhibition at 20 µM [1, 5]: 45.6%
- cytotoxicity at 20 µM (NIH-3T3 cells): 85.2%
- Percentage of cell death % 48h, NIH3T3 (NIH-3T3 cells): 73.0215%
- Lowest concentration that significantly induced cell death [3]: 5 µM
- Kinetics of induction of cell death and apoptosis (HT-29 and Caco-2 cells): more rapidly than lomitapide
